# PMC7824363, “The Cytotoxicity of RNase-Derived Peptides” (Biomolecules, 2020)
# Columns and labels:
# BT-20 cells [1] = experiment: MTT assay, BT-20 cell viability; type: cell-based, human; details: 48 h
# Experimental: (§1) The human alveolar adenocarcinoma cell line (A549), two breast cancer cell lines (MCF-7 and BT-20), and cervical cancer cell line (HeLa) were obtained from American Type Culture […] (Rockville, MD, USA). Cells were grown at 37 °C in humidified 5% CO2 atmosphere using RPMI 1640 medium for A549 cells and Dulbecco’s modified Eagle’s medium for MCF-7, BT-20, and HeLa cells supplemented with 10% fetal bovine serum (HyClone), 2 mM glutamine, and antibiotics (penicillin and streptomycin, 100 U/mL each).
# (§2) The viability of untreated control cells and cells treated with binase and binase-derived peptides at different concentrations (5, 50, and 125 μM) was determined according to the mitochondrial nicotinamide adenine dinucleotide phosphate NAD(P)H-dependent cellular oxidoreductases activity tested by the standard procedure based on the reduction of the tetrazolium dye MTT) to its insoluble product formazan, which has a purple color. Cells at the initial concentration of […] per well were grown in a 96-well plate (CELLTREAT Scientific Products, Shirley, MA, USA); then, the culture fluid was discarded and fresh medium with peptides was added. After 48 h, formazan absorption was measured at 570 nm (xMark, Bio-Rad, Hercules, CA, USA). The amount of formazan produced is proportional to the number of viable cells. The viability of untreated cells was taken as 100%.
# HeLa cells = experiment: MTT assay, HeLa cell viability; type: cell-based, human; details: 48 h, versus untreated cells = 100%, triplicate
# Experimental: as §1, §2
# A549 cells = experiment: Immunofluorescence confocal microscopy, entry into A549 cells; type: cell-based, human; details: 50 µM, 30 min incubation, His-tagged peptides (anti-His Alexa Fluor 647) or tagless binase (anti-binase, FITC), confocal laser scanning microscopy
# Experimental: (§3) A549 cells (25,000 cells/well) and BT-20 cells (150,000 cells/well) were seeded on 4-well chamber slides and incubated for 24 h in 800 µL of 10% fetal bovine serum containing RPMI or DMEM, respectively. The medium was replaced with the fresh one, and the His-tagged B21–50 and B74–94 peptides or tagless binase were applied to each well at the final concentration of 50 µM. After 30 min of incubation, the medium was removed, and the cells were washed three times with ice-cold phosphate-buffered saline (PBS). Then, cells were fixed in a 4% paraformaldehyde solution for 15 min and permeabilized in 0.1% Triton-X100 solution in PBS for 10 min. Binase-treated cells were incubated overnight with anti-binase antibodies (1:500) at 4 °C [39]. Thereafter, the cells were washed three times in PBS containing 0.1% Tween for 10 min each and then were incubated with fluorescein isothiocyanate (FITC)-conjugated mouse anti-rabbit immunoglobulin G (IgG) (H+L) cross-adsorbed secondary antibody (Thermo Fisher Scientific, Inc., Waltham, MA, USA Cat.# 31584) at the concentration of 2 µg/mL in PBS containing 1% bovine serum albumin at room temperature for 45 min in the dark. Non-specific binding of the secondary antibodies was evaluated at the same experiment but without treatment with primary antibodies. […]
# BT-20 cells [2] = experiment: Immunofluorescence confocal microscopy, entry into BT-20 cells; type: cell-based, human; details: 50 µM, 30 min incubation, His-tagged peptides (anti-His Alexa Fluor 647) or tagless binase (anti-binase, FITC), confocal laser scanning microscopy
# Experimental: as §3
# [3] = target: epidermal growth factor receptor (human (endogenous in BT-20)) (UniProt P00533)
# MCF-7 cells = experiment: MTT assay, MCF-7 cell viability; type: cell-based, human; details: 125 µM, 48 h
# Experimental: as §1, §2
# BT-20 cells [4] = experiment: MTT assay with cetuximab pre-treatment (EGFR inhibition); type: cell-based, human; details: 10 μg/mL cetuximab for 48 h, then 50 μM peptide for 48 h
# Experimental: To examine the peptide effect on EGFR signaling, the EGFR-specific monoclonal antibody cetuximab (Merck, KGaA, Darmstadt, Germany) was added at the concentration of 10 μg/mL to cells grown for 24 h in 96-well plates. After 48 h of exposure to inhibitor, half the wells were treated with the B74–94 peptide at 50 μM concentration, and the cells were allowed to grow for another 48 h. Afterwards, cell proliferation was assessed by the MTT assay.
# [5] = concentration not specified (5-125 µM tested)
substance,measurement,setting,value
"B1–20: chemically synthesized peptide corresponding to binase region 1–20 (AVINTFDGVADYLIRYKRLP; UniProt P00649 54-73, looked up, fragment)",decrease of cell viability,BT-20 cells [1]; [5],15–25%
"B95–109: chemically synthesized peptide corresponding to binase region 95–109 (IYKTTDHYATFTRIR; UniProt P00649 148-162, looked up, fragment)",decrease of cell viability,BT-20 cells [1]; [5],15–25%
"B21–50: chemically synthesized peptide corresponding to binase region 21–50 (DNYITKSQASALGWVASKGNLAEVAPGKSI; UniProt P00649 74-103, looked up, fragment)",decrease of cell viability,HeLa cells; 50 µM,45%
same,decrease of cell viability,HeLa cells; 125 µM (highest concentration),93%
same,detection inside A549 cells,A549 cells,not been visualized
same,detection inside BT-20 cells,BT-20 cells [2],detected inside BT-20 cells
same,decrease of cell viability,"BT-20 cells [1]; 5 µM, versus non-treated cells, triplicate",28%
same,decrease of cell viability,"BT-20 cells [1]; 50 µM, versus non-treated cells, triplicate",23%
same,decrease of cell viability,"BT-20 cells [1]; 125 µM, versus non-treated cells, triplicate",68%
binase-derived peptide B74–94,"cytotoxicity of B74–94 (50 μM, 48 h) toward BT-20 cells by MTT assay after 48 h of pre-treatment with 10 μg/mL cetuximab (EGFR-specific antibody)",[3],28%
"B74–94: chemically synthesized peptide corresponding to binase region 74–94 (DINYVSGFRNADRLVYSSDWL; UniProt P00649 127-147, looked up, fragment)",inhibition of cell proliferation (fold),MCF-7 cells,two-fold
same,detection inside A549 cells,A549 cells,not been visualized
same,detection inside BT-20 cells,BT-20 cells [2],detected inside BT-20 cells
same,decrease of cytotoxicity after preliminary cell treatment with cetuximab,BT-20 cells [4],28%
